Measurements as given in PubChem BioAssay (NCI).
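Tested at 5 concentrations; 48 h exposure; 96-well plates; endpoints linearly interpolated, else capped at highest concentration. GI50 marks 50% less growth. TGI: concentration producing complete growth inhibition.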

System: MDA-MB-468 breast
Experiment: growth of human tumour cells (NCI), 48 h

COc1cc2c(c(Br)c1N)-c1cc(Br)c(N)cc1C2=O showed a GI50 of 17.2 nM and a TGI of 42.1 nM.

With CCN(CC)CCN1C(=O)c2c(c3c4cc(Br)ccc4[nH]c3c3ccc4ccccc4c23)C1=O the GI50 was 1520 nM and the TGI was 3450 nM.

COc1cc2nc(-c3ccc(Cl)cc3)cc(OCCCN3CCC(O)CC3)c2cc1OC was tested, and the GI50 was 1560 nM and the TGI was 4040 nM.

Work on COc1cccc(C2C3=C(COC3=O)N(CCO)c3cc4c(cc32)CCC4)c1 (stereo not drawn) yielded a GI50 of 21.6 nM and a TGI of 177 nM.

In the case of Cc1nc(N=C(N)N)nc2ccc3ccccc3c12, the GI50 is reported as 430 nM and the TGI is reported as 2060 nM.

Cn1cc(-c2csc(-c3cn(C)c4ncccc34)n2)c2ccccc21 was tested, and the GI50 was 445 nM and the TGI was 6600 nM.

CCN(CC)c1ccc(/C=C/C2=[N+](C)c3ccccc3C2(C)C)cc1 was tested, and the GI50 was 175 nM and the TGI was 5880 nM.

Work on C#CCSc1nnnn1-c1ccc(Br)c(C)c1 yielded a GI50 of 21200 nM and a TGI of 79700 nM.

In the case of Cn1cccc1C1CC(=O)N(CCC[Se]C#N)C1=O (stereo not drawn), the GI50 is reported as 2680 nM and the TGI is reported as 9290 nM.

With c1ccc(CNc2nc(Nc3ccc(-c4nc5ccccc5[nH]4)cc3)c3cn[nH]c3n2)cc1 the GI50 was 2050 nM and the TGI was 4810 nM.

In the case of CC[C@]12C=CCN3CC[C@]4(C(=C(C(=O)OC)C1)Nc1ccccc14)[C@@H]32, the GI50 is reported as 3400 nM and the TGI is reported as 15000 nM.

With O=C(Nc1ccc(-n2cc(-c3ccncc3)c(-c3ccc(O)c(Cl)c3)n2)cc1)c1ccc(Cl)c(Cl)c1 the GI50 was 4250 nM and the TGI was > 32500 nM.

Work on Cn1cc(-c2ccc3c(c2)ncn3-c2ccc(CC(=O)Nc3cc(C(C)(C)C)on3)cc2)cn1 yielded a GI50 of 2830 nM and a TGI of 16500 nM.

Work on CCCCCCCCCCCCCCCc1ccc(C(=O)C[n+]2ccccc2)cc1 yielded a GI50 of 1550 nM and a TGI of 2890 nM.

Work on C[C@@H](Oc1cc(-n2cnc3ccc(OCC4CCN(C)CC4)cc32)sc1C(N)=O)c1ccccc1C(F)(F)F yielded a GI50 of 44.2 nM and a TGI of 192 nM.

Compound Nc1nccc(C#Cc2cncnc2Nc2ccc(OCc3cccc(F)c3)c(Cl)c2)n1 has a GI50 of 1510 nM and a TGI of 4370 nM.

For O=C(/C=C/c1cccnc1)/C=C/c1cccnc1, the GI50 was 762 nM and the TGI was 2220 nM.

C=C(CNCCc1ccc(O)cc1)[C@@H]1CC[C@]2(CO)CC[C@]3(C)[C@H](CC[C@@H]4[C@@]5(C)CCC(NCCO)C(C)(C)[C@@H]5CC[C@]43C)[C@@H]12 (stereo partly drawn) was tested, and the GI50 was 1260 nM and the TGI was 2920 nM.

Compound c1ccc(COc2ccc(Nc3ncnc4ccc(-c5ccco5)cc34)cc2)cc1 has a GI50 of 480 nM and a TGI of 5320 nM.

With Cc1ccc2c(c1)/C(=N\N=C/c1cn(C(C)C)c3ccccc13)C(=O)N2 the GI50 was 1840 nM and the TGI was > 100000 nM.

With COc1cccc(N2CCN(C3=C(Cl)C(=O)c4ncccc4C3=O)CC2)c1 the GI50 was 1750 nM and the TGI was 3430 nM.

Compound O=[N+]([O-])c1ccc([I+]c2ccccc2)cc1 has a GI50 of 1250 nM and a TGI of 4130 nM.

C/C(=N\NC(=S)Nc1ccccc1)c1ccccn1 was tested, and the GI50 was < 13.2 nM and the TGI was 115 nM.

For S=c1nc(/C=C/c2ccc(Cl)c(Cl)c2)[nH][nH]1, the GI50 was > 100000 nM and the TGI was > 100000 nM.

Cn1cc(-c2nonc2-c2cn(C)c3ccc(Br)cc23)c2ccccc21 showed a GI50 of 1560 nM and a TGI of 5170 nM.

CC1OC(OC2C(OC3CCC4(C)C(CCC5(C)C4CC=C4C6CC(C)(C)CCC6(CO)C(O)CC45C)C3(C)C)OC(C(=O)O)C(OC3OC(COC4OC(CO)C(O)C(O)C4O)C(O)C(O)C3O)C2O)C(O)C(O)C1O (stereo not drawn) showed a GI50 of 1850 nM and a TGI of 6810 nM.

In the case of Oc1ccc(-c2nc(-c3ccc(F)cc3)c(-c3ccncc3)[nH]2)cc1, the GI50 is reported as 6570 nM and the TGI is reported as 44400 nM.

C=C1CCC2C3(C)COC(c4cccc(Cl)c4)OC3CCC2(C)C1/C=C/C1=CCOC1=O (stereo not drawn) showed a GI50 of 1420 nM and a TGI of 7820 nM.

For N=C(N)c1ccc(-c2ccc(-c3ccccc3)o2)cc1, the GI50 was 2120 nM and the TGI was 4100 nM.

Work on CCN1C(=O)N(CC)C2C1NN=c1s/c(=C\c3ccc([N+](=O)[O-])cc3)c(=O)n12 (stereo not drawn) yielded a GI50 of 409 nM and a TGI of 7140 nM.

O=S(=O)(Nc1ccc(-c2nc(-c3cccc(O)c3)c(-c3ccnc(Br)c3)[nH]2)cc1)c1ccccc1 was tested, and the GI50 was 1850 nM and the TGI was 5470 nM.

For O=C1/C(=C\c2ccccc2)CN(C(=O)c2ccccc2F)C/C1=C\c1ccccc1, the GI50 was 1810 nM and the TGI was 3890 nM.

With CCOC(=O)/C(=C/c1c(-c2ccccc2)[nH]c2ccccc12)C(=O)c1ccc(Cl)cc1 the GI50 was 4360 nM and the TGI was > 100000 nM.

Work on CC1(C)CCC(CN2CCN(c3ccc(C(=O)NS(=O)(=O)c4ccc(NCC5CCOCC5)c([N+](=O)[O-])c4)c(Oc4cnc5[nH]ccc5c4)c3)CC2)=C(c2ccc(Cl)cc2)C1 yielded a GI50 of 2150 nM and a TGI of 7160 nM.
